“And” between values parts separate entries of the source, which are not always exact repeats. Equal values may be shown once. Read-outs that look alike come from different tables or passages of the source.
How the values were obtained:
[1] = ref Gintant (2011), cited from earlier work
[2] = biological target: T1, CaV1.2 (Homo sapiens, UniProt Q13936); assay: IonWorks Quattro CaV1.2 screen (AstraZeneca, Q)
[3] = biological target: T2, NaV1.5 (Homo sapiens, UniProt Q14524); assay: IonWorks Quattro NaV1.5 screen (AstraZeneca, Q)
[4] = biological target: T3, KCNQ1/MinK (Homo sapiens, UniProt P51787); assay: IonWorks Quattro KCNQ1/MinK screen (AstraZeneca, Q); details: −log10 of IC50 in Molar, Hill n = 1, 0.0 = pIC50 ≤ 0 fitted
[5] = ref Gintant (2011); cited from earlier work
[6] = Plasma concentration (Cmax) during the TQT study, total and calculated free; type: in vivo, human
[7] = biological target: hERG (Homo sapiens, UniProt Q12809); assay: IonWorks Quattro hERG screen (AstraZeneca, Q)
[8] = biological target: T2, NaV1.5; assay: Second IonWorks Quattro NaV1.5 screen (GSK, Q2)
[9] = biological target: T4, Kv4.3/KChIP2.2 (Homo sapiens, UniProt Q9UK17); assay: IonWorks Quattro Kv4.3/KChIP2.2 screen (AstraZeneca, Q); type: cell-based
T4 sequence (Q9UK17 1-655): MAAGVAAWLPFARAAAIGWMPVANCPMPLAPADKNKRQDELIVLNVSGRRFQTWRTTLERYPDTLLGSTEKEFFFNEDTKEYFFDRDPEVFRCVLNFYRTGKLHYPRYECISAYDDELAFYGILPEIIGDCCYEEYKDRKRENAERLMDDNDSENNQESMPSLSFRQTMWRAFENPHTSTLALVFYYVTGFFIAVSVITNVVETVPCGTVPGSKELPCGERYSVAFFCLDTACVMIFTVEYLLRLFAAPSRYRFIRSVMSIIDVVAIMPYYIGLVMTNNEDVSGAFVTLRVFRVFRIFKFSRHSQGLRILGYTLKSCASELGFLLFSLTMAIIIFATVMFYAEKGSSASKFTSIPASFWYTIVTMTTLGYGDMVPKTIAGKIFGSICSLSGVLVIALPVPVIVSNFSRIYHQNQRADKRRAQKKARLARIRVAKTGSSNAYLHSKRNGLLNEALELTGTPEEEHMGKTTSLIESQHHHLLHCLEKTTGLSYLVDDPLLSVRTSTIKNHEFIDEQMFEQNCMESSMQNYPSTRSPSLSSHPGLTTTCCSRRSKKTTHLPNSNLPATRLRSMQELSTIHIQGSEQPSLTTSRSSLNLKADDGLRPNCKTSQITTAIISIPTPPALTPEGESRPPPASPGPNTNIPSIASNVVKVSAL
T4 sequence (Q9NS61 1-270 partner): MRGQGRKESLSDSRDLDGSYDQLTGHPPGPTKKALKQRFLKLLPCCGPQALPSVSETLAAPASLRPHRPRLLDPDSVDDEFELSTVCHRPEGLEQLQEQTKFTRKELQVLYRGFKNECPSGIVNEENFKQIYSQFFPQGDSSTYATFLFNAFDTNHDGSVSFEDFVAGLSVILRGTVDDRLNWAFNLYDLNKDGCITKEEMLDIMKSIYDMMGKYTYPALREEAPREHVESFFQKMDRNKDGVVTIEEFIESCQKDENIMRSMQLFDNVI

[10] = biological target: T1, CaV1.2; assay: IonWorks Barracuda CaV1.2 screen (GSK, B)
[11] = biological target: T3, KCNQ1/MinK
[12] = IonWorks Quattro, −log10 of IC50 in Molar, Hill n = 1, 0.0 = pIC50 ≤ 0 fitted
[13] = Cmax high, calculated from ng/mL and molecular weight
[14] = Cmax high, calculated with PPB and molecular weight
[15] = Cmax low, calculated with PPB and molecular weight

C[C@H]1CN(C[C@H](Cc2ccccc2)C(=O)NCC(=O)O)CC[C@@]1(C)c1cccc(O)c1 [Alvimopan]
Cmax TOTAL ([1]; 12mg Capsule): 9.9 ng/mL
CaV1.2 pIC50 (Q) [2, 12]: 5.3
NaV1.5 pIC50 (Q) [3, 12]: 3.6
KCNQ1 pIC50 (Q) [4]: 4.3
PPB (percent plasma binding) [5]: 70%
Cmax FREE ([6]; 12mg Capsule): 2.97 ng/mL and 6.996 nM
Cmax TOTAL ([6]; 12mg Capsule): 23.3199 nM
Free plasma concentration ([6]; 12mg Capsule): 6.996 nM
Cmax FREE ([6]; 24 extrapolate): 5.94 ng/mL and 13.9919 nM
Cmax TOTAL ([6]; 24 extrapolate): 19.8 ng/mL and 46.6398 nM
Free plasma concentration ([6]; 24 extrapolate): 13.99 nM
IC50 [7]: 63.1 mM

CNCC[C@H](Oc1cccc2ccccc12)c1cccs1 [Duloxetine]
Cmax TOTAL ([1]; Cmax high): 300 ng/mL
NaV1.5 pIC50 (Q2) [8]: 4.8
CaV1.2 pIC50 (Q) [2]: 4.0
Kv4.3 pIC50 (Q) [9]: 4.0
CaV1.2 pIC50 (B) [10]: 4.6
KCNQ1 pIC50 (Q) [11]: 5.0
NaV1.5 pIC50 (Q) [3]: 5.1
PPB (percent plasma binding) [5]: 90%
Cmax TOTAL [6, 13]: 1008.69 nM
Cmax FREE ([6]; Cmax high, calculated with PPB): 30 ng/mL
Cmax FREE [6, 14]: 100.869 nM

COC[C@@H](NC(C)=O)C(=O)NCc1ccccc1 [Lacosamide]
CaV1.2 pIC50 (Q) ([2]; IonWorks Quattro, −log10 of IC50 in Molar, Hill n = 1, […]): 4.3
KCNQ1 pIC50 (Q) [11]: 3.6
PPB (percent plasma binding) [5]: 6% PPB
Free plasma concentration ([6]; Cmax high): 79618.4 nM
Cmax FREE ([6]; Cmax high, calculated with PPB): 19928 ng/mL
Cmax FREE [6, 14]: 79618.4 nM
Free plasma concentration ([6]; Cmax low): 41311.4 nM
Cmax FREE ([6]; Cmax low, calculated with PPB): 10340 ng/mL
Cmax FREE [6, 15]: 41311.4 nM

Nc1nnc(-c2cccc(Cl)c2Cl)c(N)n1 [Lamotrigine]
Cmax TOTAL ([1]; Cmax high): 9610 ng/mL
Cmax TOTAL ([1]; Cmax low): 7220 ng/mL
NaV1.5 pIC50 (Q2) ([8]; second independent Quattro screening, −log10 of IC50 in Molar, 0.0 = pIC50 ≤ 0 fitted): 4.4
CaV1.2 pIC50 (Q) [2]: 2.8
CaV1.2 pIC50 (B) [10]: 2.9
NaV1.5 pIC50 (Q) [3, 12]: 4.0
PPB (percent plasma binding) [5]: 55% PPB
Free plasma concentration ([6]; Cmax high): 37525.9 nM
Cmax TOTAL [6, 13]: 37525.9 nM
Cmax FREE ([6]; Cmax high, calculated with PPB): 4324.5 ng/mL
Cmax FREE [6, 14]: 37525.9 nM
Free plasma concentration ([6]; Cmax low): 28193.2 nM
Cmax FREE ([6]; Cmax low, calculated with PPB): 3249 ng/mL

CS(=O)(=O)CCNCc1ccc(-c2ccc3ncnc(Nc4ccc(OCc5cccc(F)c5)c(Cl)c4)c3c2)o1 [Lapatinib]
Cmax TOTAL ([1]; Cmax high): 3203.000 ng/mL
Cmax TOTAL ([1]; Cmax low): 1389.000 ng/mL
CaV1.2 pIC50 (Q) [2]: 2.7
CaV1.2 pIC50 (B) [10]: 1.8
NaV1.5 pIC50 (Q) [3, 12]: 2.5
KCNQ1 pIC50 (Q) [4]: 3.6
Free plasma concentration ([6]; Cmax high): 55.12 nM
Cmax TOTAL [6, 13]: 5512.340 nM
Cmax FREE ([6]; Cmax high, calculated with PPB): 32.030 ng/mL
Cmax FREE [6, 14]: 55.123 nM
Free plasma concentration ([6]; Cmax low): 23.9 nM
Cmax TOTAL ([6]; Cmax low, calculated from ng/mL and molecular weight): 2390.459 nM
Cmax FREE ([6]; Cmax low, calculated with PPB): 13.890 ng/mL
Cmax FREE [6, 15]: 23.905 nM
